13 molecules from patent US20060199853A1, “Analogs of 4-hydroxyisoleucine and uses thereof” (priority 2005, published 2006) can be followed below.

One assay relates to INS-1 cells. As to the kind of experiment: Glucose-dependent stimulation of insulin secretion in INS-1 cells. Conditions: for stimulation of insulin secretion: FIGS. 17A-17E, single concentration of 0.5 mM, 4.5 or 5 mM glucose; for insulin stimulating activity: 0.5 mM compound, 4.5 mM glucose. It is filed as cell-based. On the procedure: Selected analogs according to the invention were tested in a blinded fashion for insulinotropic effect on INS-1 cells. Briefly, the cells were plated at a density of 2×10^5 in 12 well plates and incubated for 2 days in RPMI with 10% fetal calf serum and 11 mM glucose. The medium was removed on the third day post-plating and replaced with RPMI containing 3 mM glucose with 10% fetal calf serum. The cells were incubated for an additional 24 hours. On the fourth day post-plating, the medium was removed and replaced with Krebs-Ringer bicarbonate buffer containing 2 mM glucose. The cells were incubated for 30 min and the buffer was removed and replaced with Krebs-Ringer bicarbonate buffer with 4.5 mM glucose containing the compounds to be tested at a concentration of 0.5 mM. The cells were incubated for 1 hour. Basal insulin secretion was determined by incubating the cells in the presence of buffer with 2 mM glucose. The presence of glucose at 4.5 and 10 mM stimulated insulin secretion served as the reference control and positive control, respectively.
Selected analogs according to the invention were screened for insulinotropic effect on INS-1 pancreatic beta cells according to the method described in Example 3.

Assay [1] deals with differentiated 3T3-L1 adipocyte cells. The experiment in a line: Stimulation of glucose uptake (3H-deoxy-glucose) by differentiated 3T3-L1 adipocyte cells. It is filed as cell-based. Conditions: insulin at 10^-7 M; for stimulation of glucose uptake: FIG. 15A, compounds at three concentrations, last 30 min of starvation; for stimulation of glucose uptake beyond that caused by insulin alone: FIG. 15B, 0.5 mM. On the procedure: Selected analogs according to the invention were tested for their effect on the uptake of ^3H-deoxy-glucose by differentiated 3T3-L1 adipocyte cells. Briefly, 3T3-L1 adipocyte cells (ATCC; Cl-173) were cultured in 12 well tissue culture plates for 3 days in order to reach confluence (Lakshmanan et al., Diabetes Mellitus: Methods and Protocols, Saire Ozcna, Ed., Humana Press Inc., Tonowa, N.J. 97-103, 2003). The culture medium was removed and replaced with differentiation medium (Green and Meuth, Cell 3:127-133, 1974; Madsen et al., Biochem. J. 375:539-549, 2003) and then the cells were incubated for an additional 9 days. The state of differentiation was confirmed by visual examination. Cell starvation was conducted for 5 hours by replacing the differentiation medium with one lacking fetal calf serum. During the last 30 minutes of the starvation period, the cells were exposed to compounds to be assayed at a range of concentrations. As a positive control, cells were exposed to insulin (0.0167 U/mL; Sigma; Cat. No. 15534) for the last 30 minutes of the starvation period Cells were exposed to 0.5 mM isoleucine are used as a control for background uptake. All treatments were performed in triplicate. Cells were washed, then fresh medium containing 16 μM ^3H-Deoxy-D-glucose (0.5 μCi/mL) and 10 μM 2-Deoxy-D-glucose was added and the cells were incubated for 10 min. Glucose uptake was stopped by washing the cells with ice cold PBS. The cells were lysed and specific activity in the lysate was determined relative to background uptake of ^3H-deoxy-glucose. Results were standardized on the basis of protein content per well.
FIG. 1 5B is another figure showing insulin stimulation of glucose uptake by insulin at 10^−7M, and by the analogs of the invention.

The test system of assay [2] is Diet Induced Obesity (DIO)-C57BL/6 Mice. The experiment in a line: Glycemic response to an OGTT after a single oral administration in DIO-C57BL/6 mice. Format: in vivo. The note with it: FIGS. 18A, 18B; for glycemic response following OGTT (delta glycemia AUC): 100 mg/kg, OGTT 10 minutes post-administration; for efficacy relative to the other compounds tested: OGTT. The procedure: Studies were conducted to evaluate the effect of acute oral administration of selected analogs according to the invention on the glycemic response of Diet-Induced Obesity (DIO)-C57BI/6 mice following an Oral Glucose Tolerance Test (OGTT).
In the first study, a total of 40 mice were used. The animals were randomized according to their basal glycemia values following a 5±0.5 hours fasting period and then distributed into 5 groups (1 control and 4 treated groups). Each group was composed of 8 animals. On the day of treatment, test articles were dissolved in reverse osmosis water and kept on ice. Control group (Group 1) received sterile water and Group 2 to 5 received 100 mg/kg of Compound #14a, Compound #128, Compound #133 and Compound #13e, respectively.
On the day of experimentation, animals were fasted ˜5 hours prior to the OGTT and then OGTT was performed at 10 minutes post-test article administration, by oral gavage administration of 40% glucose solution. Whole blood glucose levels were monitored using a hand-held glucometer prior to OGTT and for up to 2 hours post-lucose challenge.
In a separate experiment, the effect of acute oral administration of another analog, Compound #85(101a), on the glycemic response of DIO-mice was evaluated using the same experimental design.
FIGS. 18A and 18B show the glycemic response of mice following an OGTT performed after a single oral administration of Compounds #14a, #128, #133, #13e, and #85(101a). For both figures, delta glycemia values were calculated by substraction of pre-OGTT glycemia value. AUC values were obtained from the delta glycemia curves. Values represent the mean±SEM. N=8 animals/group. Ctl=Control DIO.*p<0.05; . . . p<0.001.

Assay [3] has the same test system. As to the kind of experiment: Glycemic response to an OGTT during chronic oral administration in DIO-C57BL/6 mice. It is filed as in vivo. The note with it: for time of maximal effect on control of glycemia: chronic oral administration twice daily. On the procedure: Studies were conducted to evaluate the effect of a chronic oral administration of selected analogs according to the invention on the glycemic response of Diet-induced Obesity (DIO)-C57BI/6 mice following an Oral Glucose Tolerance Test (OGTT) performed weekly.
In a first study, a total of 56 animals were used. The animals were distributed into 7 groups (6 treated and 1 high fat diet control groups). Each group was composed of 8 animals. The mice were randomized according to basal glycemia values following a 5±0.5 hours fasting period. Compound #14a and #133 were dissolved in reverse osmosis water while Compound #13e was dissolved in 200 mM Bicarbonate/0.1% Tween-20 buffer, pH=9.0. Compounds #14a and #133 were kept at 4° C (administration to groups 2 & 3, and 4 & 5, respectively) while Compound #13e was freshly prepared daily. Control animals received sterile saline, twice daily (Groups 1 […]). Mice from groups 2 and 3 were treated twice daily with Compound #14a at 50 and 100 mg/kg, respectively. Animals from groups 4 and 5 received twice daily 50 and 100 mg/kg of Compound #133, respectively. Mice from groups 6 and 7 received 25 and 50 mg/kg of Compound #13e, twice daily, respectively.
On day 0, 7, 14, and 21, animals fasted for about 5 hours were challenged with an Oral Glucose Tolerance Test (OGTT) at 5 hours post-AM test article administration. Whole blood glucose levels were monitored using a hand-held glucometer prior to OGTT and for up to 2 hours post-glucose challenge. In a separate experiment, the same experimental design was used to evaluate the effect of chronic administration of Compound #85(101a) on the glycemic response of DIO-C57BI/6 mice following an Oral Glucose Tolerance Test (OGTT) performed after 7 days of treatment.
FIGS. 19A, 19B, 19C, and 19D are bar graphs showing glycemic response of mice following an OGTT performed after 7 days (FIGS. 19A and 19D), 14 days (FIG. 19B) or 21 days (FIG. 19C) of treatment after chronic oral administration of selected analogs according to the invention. For each figure, delta glycemia values were calculated by substraction of pre-OGTT glycemia value. AUC values were obtained from the delta glycemia curves. Values represent the mean±SEM. N=8 animals/group. Ctl=Control DIO.*p<0.05.

Take `NC(CC(O)C1CCCCC1)C(=O)O` (centres unmarked) [#59]: the “stimulation of insulin secretion” value with INS-1 cells was “more effective to stimulate insulin secretion than parent compound #14a”.
Same read-out and setting: as for `N[C@H](C(=O)O)[C@H]1CCCC[C@H]1O` [#15e], the entry is “more effective to stimulate insulin secretion than parent compound #14a”.
For `C=CC(C)(C)C(N)C(=O)O` (centres unmarked) [#102b], the “stimulation of glucose uptake” value in assay [1] is listed as “at least equivalent activity to the parent compound”.
Take `O=C(O)[C@H]1C[C@@H](O)CN1` [#201]: the “stimulation of insulin secretion” value in the assay on INS-1 cells is recorded as “more effective to stimulate insulin secretion than parent compound #14a”.
The same measure, in the same setting: as for `CC(=O)N[C@@H]1C(=O)O[C@@H](C)[C@@H]1C` [#104], the entry is “more effective to stimulate insulin secretion than parent compound #14a”.
As for insulin [reference compound], the “stimulation of glucose uptake” value in assay [1] was “strongly promoted glucose uptake”.
On to `N[C@H](C(=O)O)[C@@H]1CCCC[C@H]1O` [#13e], for which, in assay [2], the “glycemic response following OGTT (delta glycemia AUC)” value was “significant effect on the glycemic control of DIO-mice” and the “efficacy relative to the other compounds tested” value is recorded as “most efficacious”. Besides, the insulin stimulating activity result in the assay with INS-1 cells (FIG. 16A, 1 hour) is “most effective”. In addition, the insulin stimulating activity result with INS-1 cells (FIG. 16B) is reported as “most effective”. In addition, the “stimulation of insulin secretion” value in the assay with INS-1 cells is recorded as “more effective to stimulate insulin secretion than parent compound #14a”. For the same molecule, the “glycemia increase following OGTT” value in assay [3] (25 and 50 mg/kg twice daily, half the dose of the other treated groups) is listed as “significantly reduced the glycemia increase in DIO-mice”. The “hyperglycaemic response following OGTT” value in assay [3] (25 and 50 mg/kg twice daily, Day 21, FIG. 19C) is on record as “reduced significantly the hyperglycaemic response of animals”. Also, in assay [3], the “time of maximal effect on control of glycemia” value (from here on “time of maximal effect”) is 14 days post-initiation of treatment. For the same molecule, the “stimulation of glucose uptake beyond that caused by insulin alone” value in assay [1] is reported as “greater than the stimulation caused by the parent compound”.
With `NC(CC(O)c1ccccc1)C(=O)O` (centres unmarked) [#61], the “stimulation of insulin secretion” value with INS-1 cells is on record as “more effective to stimulate insulin secretion than parent compound #14a”.
On to `CC1C(O)CN[C@@H]1C(=O)O` (some centres unmarked) [#22], for which the “stimulation of insulin secretion” value in the assay with INS-1 cells is reported as “more effective to stimulate insulin secretion than parent compound #14a”.
For `C[C@@H]([C@H](C)O)[C@H](N)C(=O)O` [#14a], the “glycemic response following OGTT (delta glycemia AUC)” value in assay [2] is reported as “significant effect on the glycemic control of DIO-mice”. Besides, the insulin stimulating activity entry with INS-1 cells (FIG. 16A, 1 hour) was “significant insulin stimulating activity”. For the same molecule, in the assay with INS-1 cells, the “stimulation of insulin secretion” value is “significant insulin stimulating activity in all the experiments”. Also, the “time of maximal effect” value in assay [3] is reported as 14 days post-initiation of treatment. For the same molecule, in assay [1], the “stimulation of glucose uptake” value is “stimulated glucose uptake at all three concentrations tested” and the “stimulation of glucose uptake beyond that caused by insulin alone” value is listed as “limited stimulation of glucose uptake beyond that caused by insulin alone”.
`C[C@H]([C@H](N)C(=O)O)C(C)(C)O` [#85(101a)]: in assay [2], the “glycemic response following OGTT (delta glycemia AUC)” value was “significant effect on the glycemic control of DIO-mice” and the “efficacy relative to the other compounds tested” value is on record as “most efficacious”. In addition, the “glycemic control following OGTT” value in assay [3] (7 consecutive days of administration, statistically significant vs control, FIG. 19D) is “improved the glycemic control of DIO-mice”.
Take `CC(C)[C@H](NC[C@@H](C)O)C(=O)O` [#133]: the “glycemic response following OGTT (delta glycemia AUC)” value in assay [2] is on record as “significant effect on the glycemic control of DIO-mice”. Besides, in assay [3], the “time of maximal effect” value is listed as 14 days post-initiation of treatment.
Regarding `CC(O)C1C(O)CN[C@@H]1C(=O)O` (some centres unmarked) [#33], in assay [1], the “stimulation of glucose uptake” value was “at least equivalent activity to the parent compound”.
